Experimental data published in US20100204187A1, “Purine Derivatives” (priority 2007, published 2010).

System: C57BL/6J mice
Assay: Delayed-type hypersensitivity response (DTH), footpad swelling after sheep red blood cell challenge (Biological Assay 2)
Type: in vivo
Conditions: administered orally (p.o. once daily during sensitization and challenge phases), male C57BL/6J mice
Experimental: Delayed-Type Hypersensitivity Response (DTH)
This assay was performed essentially as disclosed in Kudlacz E. et al, see supra. Male C57BL/6J mice received i.v. injections of 1×10^5 sheep red blood cells in a volume of 0.2 mL sterile phosphate buffered saline (PBS). Four days later, sensitized mice received an injection of 1×10^8 sheep red blood cells in a volume of 30 μL sterile PBS into the left footpad. Twenty-four hours later, animals were sacrificed and their footpads removed and weighted. The DTH swelling response was calculated by subtracting the right footpad weight (baseline) from that of the left footpad (experimental). Test compounds or vehicle (0.2% carboxymethylcellulose and 1% Tween 80 in water) were administered p.o. once daily during both sensitization and challenge phases of the DTH response. Compounds of examples 1 cc, 1cr, 1ct, 5u, 10h and 10p were active in this assay when administered orally.

SMILES | activity in DTH swelling response assay
CCCN(C)c1ccc(-c2nc(Nc3ccc(N4CCOCC4)cc3)nc3[nH]cnc23)cn1 [Example 5u, 6-[(6-N-methylpropylamino)pyridin-3-yl]-2-[4-(4-morpholino)phenyl]amino-9H-purine] | active
COc1ccc(Nc2nc(-c3cccc(S(C)(=O)=O)c3)c3nc[nH]c3n2)cc1OC [Example 1cr, 2-(3,4-dimethoxyphenyl)amino-6-(3-methanesulfonyl)phenyl-9H-purine] | active
COc1ccc(Nc2nc(-c3ccc(NC(C)=O)cc3)c3nc[nH]c3n2)cc1S(N)(=O)=O [Example 1 cc, 6-(4-acetylamino)phenyl-2-(4-methoxy-3-aminosulfonylphenyl)amino-9H-purine] | active
CS(=O)(=O)c1cccc(-c2nc(Nc3ccc(CCO)cc3)nc3[nH]cnc23)c1 [Example 1ct] | active
